Measured values reported in ChEMBL document CHEMBL3885861, “Open TG-GATES”.

Species on record: Rattus norvegicus
Assay: Open TG-GATES - Regimen: Single
Type: toxicity, organism-based, Sprague-Dawley
Set-up: regimen Single, gender Male, age 6 weeks
Details: in vivo, po, 0 mg/kg, route gavage, dose level Control; for APTT / Bas / Eos / Fbg / Hb / Ht / Lym / MCH / MCHC / MCV / Mono / Neu / PT / Plat / RBC / Ret / WBC: tissue Blood; for KIDNEY_L / KIDNEY_R / KIDNEY_TOTAL: tissue Kidney; for LIVER: tissue Liver; for A/G / ALP / ALT / AST / BUN / CRE / Ca / Cl / DBIL / GLC / IP / K / LDH / Na / PL / RALB / TBIL / TC / TG / TP / gamma-GTP: tissue Plasma

CN(C/C=C/C#CC(C)(C)C)Cc1cccc2ccccc12 [TERBINAFINE]
TERMINAL_BW (3 h): 225.4 g | APTT (3 h): 18.8 s | Bas (3 h): 0.6% | Eos (3 h): 0.8% | Fbg (3 h): 226 mg/dL | Hb (3 h): 13.2 g/dL | Ht (3 h): 39.2% | Lym (3 h): 81.8% | MCH (3 h): 21.8 pg | MCHC (3 h): 33.7% | MCV (3 h): 64.7 fL | Mono (3 h): 2.4% | Neu (3 h): 13.6% | PT (3 h): 12.1 s | Plat (3 h): 121.7 x10_4/uL | RBC (3 h): 606.2 x10_4/ul | Ret (3 h): 7.5% | WBC (3 h): 116.5 x10_2/uL | KIDNEY_L (3 h): 1.1 g | KIDNEY_R (3 h): 1 g | KIDNEY_TOTAL (3 h): 2.1 g | LIVER (3 h): 10.9 g | A/G (3 h): 1.7 | ALP (3 h): 1027 IU/L | ALT (3 h): 40.4 IU/L | AST (3 h): 72.4 IU/L | BUN (3 h): 12 mg/dL | CRE (3 h): 0.4 mg/dL | Ca (3 h): 10.8 mg/dL | Cl (3 h): 101.8 meq/L | DBIL (3 h): 0.074 mg/dL | GLC (3 h): 202.2 mg/dL | IP (3 h): 9 mg/dL | K (3 h): 3.7 meq/L | LDH (3 h): 154.4 IU/L | Na (3 h): 140.8 meq/L | PL (3 h): 151.8 mg/dL | RALB (3 h): 3.4 g/dL | TBIL (3 h): 0.1 mg/dL | TC (3 h): 85.4 mg/dL | TG (3 h): 68.4 mg/dL | TP (3 h): 5.5 g/dL | gamma-GTP (3 h): 1 IU/L | TERMINAL_BW (6 h): 222.8 g | APTT (6 h): 19 s | Bas (6 h): 0.6% | Eos (6 h): 0.8% | Fbg (6 h): 229.4 mg/dL | Hb (6 h): 13.7 g/dL | Ht (6 h): 40.5% | Lym (6 h): 72.6% | MCH (6 h): 21.1 pg | MCHC (6 h): 33.8% | MCV (6 h): 62.3 fL | Mono (6 h): 3.2% | Neu (6 h): 22.4% | PT (6 h): 12 s | Plat (6 h): 132.2 x10_4/uL | RBC (6 h): 650.8 x10_4/ul | Ret (6 h): 6.6% | WBC (6 h): 113 x10_2/uL | KIDNEY_L (6 h): 1 g | KIDNEY_R (6 h): 1 g | KIDNEY_TOTAL (6 h): 2 g | LIVER (6 h): 9.9 g | A/G (6 h): 1.7 | ALP (6 h): 967.6 IU/L | ALT (6 h): 34.8 IU/L | AST (6 h): 69.6 IU/L | BUN (6 h): 10.6 mg/dL | CRE (6 h): 0.4 mg/dL | Ca (6 h): 10.8 mg/dL | Cl (6 h): 102.8 meq/L | DBIL (6 h): 0.074 mg/dL | GLC (6 h): 197.2 mg/dL | IP (6 h): 8.8 mg/dL | K (6 h): 3.8 meq/L | LDH (6 h): 147.4 IU/L | Na (6 h): 140.6 meq/L | PL (6 h): 133.4 mg/dL | RALB (6 h): 3.5 g/dL | TBIL (6 h): 0.1 mg/dL | TC (6 h): 76.2 mg/dL | TG (6 h): 59.2 mg/dL | TP (6 h): 5.5 g/dL | gamma-GTP (6 h): 1 IU/L | TERMINAL_BW (9 h): 219.8 g | APTT (9 h): 18.2 s | Bas (9 h): 0.6% | Eos (9 h): 1% | Fbg (9 h): 229 mg/dL | Hb (9 h): 13.4 g/dL | Ht (9 h): 39.8% | Lym (9 h): 73.8% | MCH (9 h): 20.9 pg | MCHC (9 h): 33.5% | MCV (9 h): 62.5 fL | Mono (9 h): 1.8% | Neu (9 h): 22.4% | PT (9 h): 12.2 s | Plat (9 h): 119.3 x10_4/uL | RBC (9 h): 637.4 x10_4/ul | Ret (9 h): 6.8% | WBC (9 h): 89.2 x10_2/uL | KIDNEY_L (9 h): 1 g | KIDNEY_R (9 h): 1 g | KIDNEY_TOTAL (9 h): 2 g | LIVER (9 h): 9.3 g | A/G (9 h): 1.6 | ALP (9 h): 810.4 IU/L | ALT (9 h): 31 IU/L | AST (9 h): 62.8 IU/L | BUN (9 h): 11.8 mg/dL | CRE (9 h): 0.4 mg/dL | Ca (9 h): 10.5 mg/dL | Cl (9 h): 103.6 meq/L | DBIL (9 h): 0.066 mg/dL | GLC (9 h): 204.2 mg/dL | IP (9 h): 9.8 mg/dL | K (9 h): 3.9 meq/L | LDH (9 h): 167.6 IU/L | Na (9 h): 141.4 meq/L | PL (9 h): 136.4 mg/dL | RALB (9 h): 3.4 g/dL | TBIL (9 h): 0.1 mg/dL | TC (9 h): 70.2 mg/dL | TG (9 h): 62 mg/dL | TP (9 h): 5.6 g/dL | gamma-GTP (9 h): 1.4 IU/L | TERMINAL_BW (24 h): 238.7 g | APTT (24 h): 18.9 s | Bas (24 h): 0.8% | Eos (24 h): 1% | Fbg (24 h): 236.8 mg/dL | Hb (24 h): 13.2 g/dL | Ht (24 h): 39.1% | Lym (24 h): 79.2% | MCH (24 h): 21.6 pg | MCHC (24 h): 33.7% | MCV (24 h): 64.3 fL | Mono (24 h): 2.8% | Neu (24 h): 16.4% | PT (24 h): 11.8 s | Plat (24 h): 132.1 x10_4/uL | RBC (24 h): 608.4 x10_4/ul | Ret (24 h): 6.3% | WBC (24 h): 97.8 x10_2/uL | KIDNEY_L (24 h): 1 g | KIDNEY_R (24 h): 1 g | KIDNEY_TOTAL (24 h): 2 g | LIVER (24 h): 11.6 g | A/G (24 h): 1.6 | ALP (24 h): 986.4 IU/L | ALT (24 h): 36.4 IU/L | AST (24 h): 74.4 IU/L | BUN (24 h): 15.4 mg/dL | CRE (24 h): 0.4 mg/dL | Ca (24 h): 10.9 mg/dL | Cl (24 h): 103.6 meq/L | DBIL (24 h): 0.1 mg/dL | GLC (24 h): 196.8 mg/dL | IP (24 h): 7.4 mg/dL | K (24 h): 4.2 meq/L | LDH (24 h): 189.4 IU/L | Na (24 h): 141.2 meq/L | PL (24 h): 152 mg/dL | RALB (24 h): 3.5 g/dL | TBIL (24 h): 0.2 mg/dL | TC (24 h): 74.4 mg/dL | TG (24 h): 107.8 mg/dL | TP (24 h): 5.7 g/dL | gamma-GTP (24 h): 1.6 IU/L
